Where “and” joins values, the source holds several entries; their conditions need not be identical. Equal entries are not always repeated. Where two headings read alike, the source gives them in different places.

Holding throughout (format): cell-based
Assay [1] concerns the target T1, CX3CR1 (Homo sapiens, UniProt P49238).
T1 sequence (P49238 1-355): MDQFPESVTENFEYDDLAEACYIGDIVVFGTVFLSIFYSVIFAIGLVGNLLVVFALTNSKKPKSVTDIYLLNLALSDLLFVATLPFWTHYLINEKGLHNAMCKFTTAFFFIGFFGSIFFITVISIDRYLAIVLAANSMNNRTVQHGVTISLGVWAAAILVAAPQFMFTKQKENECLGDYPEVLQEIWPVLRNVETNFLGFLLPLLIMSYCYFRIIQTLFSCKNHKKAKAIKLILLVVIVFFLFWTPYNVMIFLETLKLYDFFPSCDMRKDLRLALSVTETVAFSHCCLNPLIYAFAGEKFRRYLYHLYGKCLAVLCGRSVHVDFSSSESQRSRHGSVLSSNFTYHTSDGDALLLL
The assay is described as follows: Inhibition of FKN-induced ERK phosphorylation in MDA-436 breast cancer cells over-expressing CX3CR1 (Western blot). The conditions noted are these: for inhibition of ERK phosphorylation induced by FKN: compound at 10 μM, incubated 30 minutes, MDA-436 cells over-expressing CX3CR1, 50 nM FKN for 5 minutes. More on the design: expressed in transfected cells; host or cells: MDA-MB-436 human breast cancer cells. The procedure:
Cells were serum starved for 4 hours and then exposed to 50 nM recombinant human FKN (R&D systems, Minneapolis, Minn.) for indicated time points.
(§1) Cell lysates were obtained and SDS-polyacrylamide gel electrophoresis and western blot analysis were performed as previously described (Shulby et al., 2004, Cancer Res. 64:4393-98), with few modifications. Membranes were probed with an antibody against CX3CR1 (0.5 μg/ml, Torrey Pines Biolabs, East Orange, N.J.) and actin (Sigma, St. Louis, Mo.) using 5% milk as a blocking reagent. Membranes were also probed with antibodies targeting phospho-p44/42 MAPK (Thr202/Tyr204, Cell Signaling) and total p44/42 MAPK (Cell Signaling). All primary antibody incubations were performed overnight at 4° C. Primary antibody binding was detected using horseradish peroxidase-conjugated anti-rabbit secondary antibody (Pierce, Rockford, Ill.). Chemiluminescent signals were obtained using SuperSignal West Femto reagents (Pierce) and detected with the Fluorochem 8900 imaging system and relative software (Alpha Innotech, San Leandro, Calif.).
Compound 1 was then evaluated for its ability to inhibit the activation of downstream intracellular pathways by CX3CR1 upon stimulation with soluble FKN. In these experiments, MDA-MB 436 human breast cancer cells, engineered to over-express CX3CR1, were treated with 50 nM FKN for 5 minutes after being incubated with compound 1 for 30 minutes.

The target in assay [2] is T1, CX3CR1. The assay is described as follows: Calcium mobilization (Ca2+) assay, agonist mode, HEK293T cells stably expressing human CX3CR1. More on the design: Expression vector containing full-length human CX3CR1 cDNA; host or cells: HEK293T. The following applies: for stimulation of calcium flux (agonist activity): HEK293T cells expressing human CX3CR1. The procedure: (§2) Cells: Mammalian HEK293T cells stably expressing human CX3CR1 (Multispan, Hayward, Calif.)—Host cell: HEK293T; Transfection: Expression vector containing full-length human CX3CR1 cDNA (GenBank Accession Number NM_001337) with FLAG tag sequence at N-terminus; Propagation Medium: DMEM, 10% FBS, 1 μg/mL puromycin.
(§3) Compounds were reconstituted in DMSO at 10 mM. Control agonist CX3CL1 was from Peprotech (Cat #300-31).
(§4) Calcium assay: Cells expressing the CX3CR1 receptor were transiently transfected with the chimeric G protein Gαqi5 and seeded in 384-well plates at appropriate densities and cultured overnight. Calcium assays were conducted according to the manufacturer's protocols. The calcium dye loading buffer was added to the cells and incubated for one hour at 37° C. Calcium flux was monitored for 90 seconds with compound injected into the wells at 20th second. In antagonist mode, carrier or compounds were preincubated with the cells for 30 minutes before calcium flux measurement with the control agonist at EC80 concentration (0.04 μM).
(§5) Data analysis: Calcium assay results were expressed as “RFU” and “% Increase in RFU” (FIG. 17). Data were represented in Mean±SEM. Dose-response curves were fitted using “Sigmoidal dose-response (variable slope)” function in Prism 4 without constraint. EC50, EC80 and IC50 values were derived from “% Increase in RFU”.

Assay [3] concerns the target T1, CX3CR1. The assay is described as follows: Calcium mobilization (Ca2+) assay, antagonist mode (CX3CL1 at EC80), HEK293T cells stably expressing human CX3CR1. The conditions noted are these: for % Increase in RFU / RFU: antagonist mode. Also noted: Expression vector containing full-length human CX3CR1 cDNA; host or cells: HEK293T. The procedure:
as §2, §3, §4, §5

In the next assay the test system is p-ERK1/2. The experiment in a line: p-ERK1/2 inhibition by Western blot analysis. The method, then: as §1
Where [4] appears, read: agonist mode, Log [Compounds] M −4.5, listed as JMS-16.
The mark [5] stands for this setting: agonist mode, Log [Compounds] M −4.8, listed as JMS-16.
The mark [6] stands for this setting: agonist mode, Log [Compounds] M −5.1, listed as JMS-16.
Setting [7] is: agonist mode, Log [Compounds] M −5.4, listed as JMS-16.
Setting [8] is: agonist mode, Log [Compounds] M −5.7, listed as JMS-16.
Setting [9] is: agonist mode, Log [Compounds] M −6.0, listed as JMS-16.
Setting [10] is: agonist mode, Log [Compounds] M −6.3, listed as JMS-16.
The mark [11] stands for this setting: agonist mode, Log [Compounds] M −6.6, listed as JMS-16.
The mark [12] stands for this setting: CX3CL1 at EC80 (0.04 μM), Log [Compounds] M −4.5, listed as JMS-16.
Where [13] appears, read: CX3CL1 at EC80 (0.04 μM), Log [Compounds] M −4.8, listed as JMS-16.
Where [14] appears, read: CX3CL1 at EC80 (0.04 μM), Log [Compounds] M −5.1, listed as JMS-16.
Where [15] appears, read: CX3CL1 at EC80 (0.04 μM), Log [Compounds] M −5.4, listed as JMS-16.
Where [16] appears, read: CX3CL1 at EC80 (0.04 μM), Log [Compounds] M −5.7, listed as JMS-16.
Setting [17] is: CX3CL1 at EC80 (0.04 μM), Log [Compounds] M −6.0, listed as JMS-16.
[18] abbreviates: CX3CL1 at EC80 (0.04 μM), Log [Compounds] M −6.3, listed as JMS-16.
Setting [19] is: CX3CL1 at EC80 (0.04 μM), Log [Compounds] M −6.6, listed as JMS-16.
Setting [20] is: control agonist, Log [CX3CL1] M −6.7.
[21] abbreviates: control agonist, Log [CX3CL1] M −7.2.
Where [22] appears, read: control agonist, Log [CX3CL1] M −7.7.
[23] abbreviates: control agonist, Log [CX3CL1] M −8.1.
Where [24] appears, read: control agonist, Log [CX3CL1] M −8.6.
[25] abbreviates: control agonist, Log [CX3CL1] M −9.1.
The mark [26] stands for this setting: control agonist, Log [CX3CL1] M −9.6.
[27] abbreviates: control agonist, Log [CX3CL1] M −10.0.
The mark [28] stands for this setting: EC80 CX3CL1 (0.04 μM) alone, no test compound.

Consider `N#CC(CCCN1CCC(O)(c2ccc(Cl)cc2)CC1)(c1ccccc1)c1ccccc1` [Compound 1, 5-(4-(4-chlorophenyl)-4-hydroxypiperidin-1-yl)-2,2-diphenylpentanenitrile], for which the “CX3CR1 antagonism (in words)” value at CX3CR1 [1] is given as “weakly potent”; at CX3CR1 [1] (listed as compound 1), “weak CX3CR1 antagonism”. Also, the “inhibition of ERK phosphorylation induced by FKN” value is on record as “inhibits ERK phosphorylation” at CX3CR1 [1] and “able to inhibit the activation of the MAPK pathway” on CX3CR1 [1] (listed as compound 1).
As to `O=c1c2cccn2c2ccccc2n1CCCN1CCC(O)(c2ccc(Cl)cc2)CC1` [Compound 3, 5-(3-(4-(4-chlorophenyl)-4-hydroxypiperidin-1-yl)propyl)pyrrolo[1,2-a]quinoxalin-4(5H)-one], at CX3CR1 [2], the “stimulation of calcium flux (agonist activity)” value is given as “agonist activity at the two highest concentrations”. The “% Increase in RFU” value was 127.9% and 118.0% and 112.4% on CX3CR1 [2] (setting [4]); 80.2% and 85.0% and 84.7% at CX3CR1 [2] (setting [5]); 60.1% and 70.3% and 64.9% on CX3CR1 [2] (setting [6]); 61.1% and 62.3% and 60.5% on CX3CR1 [2] (setting [7]); 57.2% and 61.7% and 60.7% on CX3CR1 [2] (setting [8]); 58.3% and 63.2% and 63.0% at CX3CR1 [2] (setting [9]). In addition, the “% Increase in RFU” value on CX3CR1 [2] (setting [10]) was 59.0% and 66.2% and 61.9%; on CX3CR1 [2] (setting [11]) it was 61.6% and 62.1% and 60.1%; at CX3CR1 [3] (setting [12]), 4.4% and 3.5% and 2.2%; at CX3CR1 [3] (setting [13]), 27.9% and 23.6% and 26.7%; at CX3CR1 [3] (setting [14]) it was 45.0% and 38.6% and 38.7%; on CX3CR1 [3] (setting [15]) it was 52.1% and 45.7% and 41.1%. Further, the “% Increase in RFU” value at CX3CR1 [3] (setting [16]) is 48.9% and 53.1% and 47.0%; at CX3CR1 [3] (setting [17]), 58.1% and 54.8% and 53.3%; on CX3CR1 [3] (setting [18]), 46.4% and 46.2% and 42.0%; at CX3CR1 [3] (setting [19]), 45.9% and 41.3% and 44.0%. Besides, the RFU is 31.7 RFU and 30.7 RFU and 29.0 RFU on CX3CR1 [2] (setting [4]); 22.1 RFU and 22.5 RFU and 23.3 RFU at CX3CR1 [2] (setting [5]); 16.5 RFU and 20.3 RFU and 18.8 RFU at CX3CR1 [2] (setting [6]); 15.5 RFU and 16.9 RFU and 17.1 RFU at CX3CR1 [2] (setting [7]); 15.2 RFU and 17.8 RFU and 17.1 RFU on CX3CR1 [2] (setting [8]); 15.6 RFU and 18.7 RFU and 18.6 RFU on CX3CR1 [2] (setting [9]). The RFU is 16.0 RFU and 18.2 RFU and 19.5 RFU at CX3CR1 [2] (setting [10]); 15.5 RFU and 18.6 RFU and 17.8 RFU at CX3CR1 [2] (setting [11]); 1.2 RFU and 0.9 RFU and 0.6 RFU at CX3CR1 [3] (setting [12]); 9.5 RFU and 7.6 RFU and 8.5 RFU at CX3CR1 [3] (setting [13]); 15.0 RFU and 13.0 RFU and 12.3 RFU at CX3CR1 [3] (setting [14]); 15.5 RFU and 14.4 RFU and 13.5 RFU on CX3CR1 [3] (setting [15]). The RFU on CX3CR1 [3] (setting [16]) was 15.6 RFU and 17.9 RFU and 14.4 RFU; on CX3CR1 [3] (setting [17]), 18.4 RFU and 18.6 RFU and 18.2 RFU; at CX3CR1 [3] (setting [18]), 15.7 RFU and 14.6 RFU and 14.5 RFU; at CX3CR1 [3] (setting [19]) it was 13.6 RFU and 14.0 RFU and 14.4 RFU. Also, the IC50 at CX3CR1 [3] (30 min preincubation, CX3CL1 at EC80 (0.04 μM), read-out: IC50, inhibition of CX3CL1-evoked calcium flux) was 21 µM. In the assay on p-ERK1/2, the EC50 was ~0.01 µM.

B1: CX3CL1: Control agonist CX3CL1 from Peprotech; chemokine ligand of CX3CR1, also called fractalkine or FKN (protein, listed as Homo sapiens)
chain: MAPISLSWLLRLATFCHLTVLLAGQHHGVTKCNITCSKMTSKIPVALLIHYQQNQASCGKRAIILETRQHRLFCADPKEQWVKDAMQHLDRQAAALTRNGGTFEKQIGEVKPRTTPAAGGMDESVVLEPEATGESSSLEPTPSSQEAQRALGTSPELPTGVTGSSGTRLPPTPKAQDGGPVGTELFRVPPVSTAATWQSSAPHQPGPSLWAEAKTSEAPSTQDPSTQASTASSPAPEENAPSEGQRVWGQGQSPRPENSLEREEMGPVPAHTDAFQDWGPGSMAHVSVVPVSSEGTPSREPVASGSWTPKAEEPIHATMDPQRLGVLITPVPDAQAATRRQAVGLLAFLGLLFCLGVAMFTYQSLQGCPRKMAGEMAEGLRYIPRSCGSNSYVLVPV
Regarding B1, the “stimulation of calcium flux (agonist activity)” value with CX3CR1 [2] is “dose-dependent stimulation of calcium flux”. The “% Increase in RFU” value with CX3CR1 [2] (setting [20]) is 59.0% and 61.1%; in the assay with CX3CR1 [2] (setting [21]), 59.9% and 52.7%; with CX3CR1 [2] (setting [22]), 42.3% and 35.6%; in the assay with CX3CR1 [2] (setting [23]), 25.3% and 14.3%; in the assay with CX3CR1 [2] (setting [24]) it was 9.6% and 11.8%; in the assay with CX3CR1 [2] (setting [25]) it was 12.2% and 11.0%. For the same molecule, the “% Increase in RFU” value was 8.3% and 5.1% with CX3CR1 [2] (setting [26]); 7.6% and 4.7% with CX3CR1 [2] (setting [27]); 45.9% and 37.2% and 45.8% with CX3CR1 [3] (setting [28]). Also, the RFU is 22.2 RFU and 22.7 RFU with CX3CR1 [2] (setting [20]); 21.4 RFU and 20.1 RFU in the assay with CX3CR1 [2] (setting [21]); 15.5 RFU and 12.4 RFU in the assay with CX3CR1 [2] (setting [22]); 9.3 RFU and 4.8 RFU in the assay with CX3CR1 [2] (setting [23]); 3.3 RFU and 4.0 RFU with CX3CR1 [2] (setting [24]); 4.4 RFU and 4.1 RFU with CX3CR1 [2] (setting [25]). In addition, the RFU with CX3CR1 [2] (setting [26]) is 2.9 RFU and 1.9 RFU; with CX3CR1 [2] (setting [27]), 2.6 RFU and 1.6 RFU; with CX3CR1 [3] (setting [28]) it was 16.0 RFU and 10.9 RFU and 15.8 RFU.

(Values after patent publication US10414771B2, “Compounds useful for inhibiting metastasis from cancer and methods using same” (Drexel University, priority 2010, dated 2019).)
